# “Also recorded” adds a separate entry of the source.
# Assays:
# NLRC4 inflammasome = test: Flagellin-induced caspase-1 activation in wild type BMDM pre-treated with NRTIs, immunoblot; type: cell-based, mouse; conditions: NRTI at 100 μM for 1 hour, flagellin transfection 3 μg/ml (FIG. 27)
# Description: FIG. 27. NRTI block Flagellin induced NLRC4 inflammasome in BMDM. Wild type BMDM cells were pre-treated with exemplary NRTIs (D4T, 3TC) at 100 μM for 1 hour, and then stimulated with flagellin transfection (3 μg/ml). Supernatant and cell lysate were collected for Caspase-1 detection. […] The caspase-1 (p20) bands are indicated with black arrow.
# FIG. 28. NRTI (3TC) blocks flagellin-induced NLRC4 inflammasome in a dose dependent manner. Wild type BMDM cell were pre-treated with indicated dose of NRTI (3TC) for 1 hour, and then stimulated with Flagellin transfection (3 μg/ml). Supernatants were collected for Caspase-1 detection. […] The caspase-1 (p20) bands are indicated with black arrow.
# FIG. 31. Modified NRTIs (K8, K9) block flagellin-induced NLRC4 inflammasome in BMDM. Wild type BMDM cell were pre-treated with regular NRTI (D4T, 3TC), the modified NRTIs 3-Methyl-3TC (K9) or 2-Ethyl-AZT (K8), or NLRP3 inhibitors (MCC950, CY-09) for 1 hour, and then stimulated with flagellin transfection (3 μg/ml). Supernatants were collected for secreted caspase-1 detection. […] The caspase-1 (p20) bands are indicated with black arrow.
# Nucleoside reverse transcriptase inhibitors (NRTIs) are HIV therapeutics that inhibit retrovirus replication. We have previously shown that NRTIs inhibit P2X7-mediated NLRP3 inflammasome activation by an endogenous retroelement Alu RNA (SEQ ID NO: 86). Activation of NLRP3 inflammasome by Alu RNA (SEQ ID NO: 86) causes the death of retinal pigment epithelium (RPE) in geographic atrophy, a severe form of AMD. […] Currently, multiple NLRP3 inflammasome inhibitors such as MCC950, CY09 are available however, there are no inhibitors of NLRC4. So, a need exists to develop inhibitors of NLRC4 inflammasome to study NLRC4 driven diseases. Here, we show for the first time that NRTIs block flagellin induced NLRC4 inflammasome. We pretreated flagellin transfected BMDMs with DT4 and 3TC to examine caspase-1 activation.
# NLRC4 oligomerization is another hallmark of inflammasome activation where high-molecular mass NLRC4 protein complexes are assembled. […]
# NLRP3/NLRC4 complex = test: Biotin-streptavidin pulldown of biotin-labeled NRTIs with NLRC4/NLRP3, immunoblot; type: binding; conditions: immunoblot (FIG. 33)
# Description: FIG. 33. NRTIs directly bind to NLRP3/NLRC4 complex in a reconstituted system. HEK293 cell were transfected with NLRC4 and NLRP3. Biotin-Labeled NRTIs (D4T, AZT) were added to the HEK cells 4 hours later, and cell pellets were collected for biotin streptavidin pulldown. Binding between NRTIs and NLRC4/NLRP3 was detected by immunoblot. […] The bands of NLRC4 and NLRP3 pulled down with biotinylated NRTI are indicated with black arrows.
# Finally, we sought to investigate the mechanism through which NRTIs inhibit NLRC4 inflammasome and asked whether this is NLRP3 dependent. We transfected WT and NLRP3 KO BMDMs with flagellin to examine caspase-1 activation using immunoblot. […] To further confirm the mechanism of action of NRTIs, we investigated whether they directly bind to NLRP3/NLRC4 complex in a reconstituted system. We treated flagellin transfected BMDMs with free and biotin labeled D4T and AZT and pulled down biotin.
# RPE degeneration [1] = conditions: intraperitoneal administration; previously reported; cited from earlier work
# ASC oligomerization [2] = test: Alu RNA induced ASC oligomerization in THP1 cells after siRNA knockdown; type: cell-based, human; conditions: siRNA knockdown (FIG. 12A)
# Excerpt: (§1) FIGS. 12A and 12B. DDX17 knockdown blocks Alu RNA (SEQ ID NO: 86) induced ASC oligomerization and IL-1β release. FIG. 12A. siRNA mediated DDX17 knockdown (siRNA for DDX17: CCAAUCUGAUGUAUCAGGA; SEQ ID NO: 91), but not Ddx5 (siRNA for DDX5: GGAAAUUACAGUUAGAGGU; SEQ ID NO: 89) in THP1 cells, blocked Alu RNA (SEQ ID NO: 86) induced ASC oligomerization. The band of ASC oligomers were indicated by black arrow. FIG. 12B. siRNA mediated DDX17 knockdown, but not Ddx5 in THP1 cells, blocked Alu RNA (SEQ ID NO: 86) induced IL-1β release.
# (§2) To further confirm that DDX17 is the sensor for NLRC4, we investigated caspase-1 cleavage by immunoblotting and IL-1β secretion by ELISA in Alu RNA (SEQ ID NO: 86) or mock treated THP1 cells and DDX17 KO BMDMs respectively.
# IL-1β = test: Alu RNA induced IL-1β release in THP1 cells after siRNA knockdown, ELISA; type: cell-based, human; conditions: siRNA knockdown (FIG. 12B)
# Excerpt: as §1, §2
# RPE degeneration [3] = test: Alu RNA induced RPE degeneration in mice, fundus images and ZO-1 staining; type: in vivo; conditions: mice, subretinal Alu RNA; fundus and ZO-1 (FIGS. 25B, 26)
# Description: (§3) FIGS. 25A and 25B. NLRC4 knockdown blocks Alu RNA (SEQ ID NO: 86) induced ASC oligomerization and RPE degeneration. Human RPE cell treated with siRNA target on NLRC4 (SMARTPOOL siRNA for NLRC4: CAACUGGGCUCCUCUGUAA; SEQ ID NO: 93) and NAIP (SMARTPOOL siRNA for NAIP: GUAAAGAGCUAUAUGGAUA; SEQ ID NO: 94), 24 hours later, treated with Alu RNA (SEQ ID NO: 86 at 100 pmol) FIG. 25A. […] The band of ASC oligomers was indicated by black arrow. […] The hyperdense areas due to the RPE degeneration in fundus images and ZO-1 disorganizations in RPE sheet are indicated by white arrows.
# FIG. 26. […] Wilde type of C57/B6 mice were intravitreally injected with siRNA target on Ddx17 (siRNA for Ddx17: GGCUAGAUGUGGAAGAUGU; SEQ ID NO: 95), and two days later, Nlrc4^−/−, Naip1-6^−/−, mice and Ddx17 knockdown mice were subretinally injected with Alu RNA (SEQ ID NO: 86). […] The hyperdense areas due to the RPE degeneration in fundus images and ZO-1 disorganizations in RPE sheet are indicated by white arrows.
# (§4) Next, we asked whether Alu RNA (SEQ ID NO: 86) also triggered NLRC4 inflammasome activation in human RPE cells. We performed immunofluorescence staining experiments to examine whether Alu RNA (SEQ ID NO: 86) can induce NLRC4 speck formation in human RPE cells. We noticed punctate structures resembling specks of NLRC4 in human RPE cells in response to Alu RNA (SEQ ID NO: 86) treatment (FIG. 24A). […] We further investigated downstream events of NLRC4 inflammasome activation by studying NLRC4-induced ASC oligomerization, a critical step involved in caspase-1 cleavage. NLRC4 siRNA, when co-administered with Alu RNA (SEQ ID NO: 86), blocked ASC oligomerization in vitro (FIG. 25A) and RPE degeneration in vivo (FIG. 25B).
# We delivered Alu RNA (SEQ ID NO: 86) or Alu RNA (SEQ ID NO: 86)+siDDX17 subretinally in WT or NLRC4 KO or NAIP1-6 KO mice and examined for RPE degeneration using fundus photos and ZO-1 staining as described previously.
# ASC oligomerization [4] = test: Alu RNA induced ASC oligomerization in human RPE cells after siRNA knockdown; type: cell-based; conditions: 24 hours later Alu RNA 100 pmol (FIG. 25A)
# Description: as §3, §4
# p-NLRC4 and caspase-1 = test: Dicer1 knockdown induced inflammasome activation in BMDM, immunoblot; type: cell-based, mouse
# Excerpt: FIGS. 20A and 20B. DDX17-NLRC4-NLRP3 are required for Dicer1 knockdown induced inflammasome activation. FIG. 20A. Dicer1 knockdown (siRNA for Dicer 1: GCAGUUGUCCUAAACAGAU; SEQ ID NO: 92) causes increase of p-NLRC4 and caspase-1 activation, which were blocked in Ddx17^−/− iBMDMs. FIG. 20B. Dicer1 knockdown-induced caspase-1 cleavage was impaired in Nlrc4^−/− and Nlrp3^−/− BMDMs. The caspase-1 (p20) bands are indicated with black arrows.
# We have previously shown that DICER deficiency mediated accumulation of Alu RNA induces NLRP3 inflammasome activation. So we examined whether DICER knockdown could also induce DDX17-NLRC4-NLRP3 signaling. WT and DDX17 KO BMDMs were transfected with siDICER to examine NLRC4 phosphorylation and caspase-1. […] We then determined phosphorylation of NLRC4 and caspase-1 activation in WT, NLRC4 KO and NLRP3 KO BMDMs after transfection with siDICER or sicontrol.
# [5] = target: T1, mouse NLR family CARD domain containing 4 (Nlrc4) (mouse, UniProt Q3UP24 1-1024); test: immunofluorescence of endogenous ASC specks and NLRC4 puncta in SINE RNA-transfected BMDMs
# T1 construct: Endogenous protein of mouse BMDM / iBMDM
# T1 sequence (Q3UP24 whole entry, the tested form may be a part): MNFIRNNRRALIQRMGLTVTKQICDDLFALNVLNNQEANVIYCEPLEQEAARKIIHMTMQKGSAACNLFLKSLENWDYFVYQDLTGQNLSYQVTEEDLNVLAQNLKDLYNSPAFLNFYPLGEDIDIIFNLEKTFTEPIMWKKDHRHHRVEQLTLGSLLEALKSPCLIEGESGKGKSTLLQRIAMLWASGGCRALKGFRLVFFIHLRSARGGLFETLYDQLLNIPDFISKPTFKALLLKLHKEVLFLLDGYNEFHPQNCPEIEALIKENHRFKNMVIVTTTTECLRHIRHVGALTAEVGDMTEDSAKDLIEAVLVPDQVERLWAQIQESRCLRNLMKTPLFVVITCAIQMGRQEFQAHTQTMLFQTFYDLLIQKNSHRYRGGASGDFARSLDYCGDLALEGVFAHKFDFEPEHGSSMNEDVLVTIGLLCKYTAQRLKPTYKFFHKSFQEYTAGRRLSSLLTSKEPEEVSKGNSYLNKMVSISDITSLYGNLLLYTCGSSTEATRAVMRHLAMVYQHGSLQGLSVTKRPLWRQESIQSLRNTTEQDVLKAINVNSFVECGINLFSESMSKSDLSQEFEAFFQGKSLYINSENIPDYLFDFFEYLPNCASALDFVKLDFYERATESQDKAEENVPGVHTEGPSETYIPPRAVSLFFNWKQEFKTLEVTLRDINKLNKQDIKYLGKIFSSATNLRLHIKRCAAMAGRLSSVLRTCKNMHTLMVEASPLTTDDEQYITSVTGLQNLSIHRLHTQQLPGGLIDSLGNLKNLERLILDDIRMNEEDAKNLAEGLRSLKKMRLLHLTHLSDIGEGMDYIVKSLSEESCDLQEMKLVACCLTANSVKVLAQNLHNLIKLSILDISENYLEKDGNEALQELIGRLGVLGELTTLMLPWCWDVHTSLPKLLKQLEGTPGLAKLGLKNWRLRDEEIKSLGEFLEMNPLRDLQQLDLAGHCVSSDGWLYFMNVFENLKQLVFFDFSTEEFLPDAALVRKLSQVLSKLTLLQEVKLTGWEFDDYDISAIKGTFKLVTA
# Description: FIGS. 3A and 3B. SINE RNA-induced ASC oligomerization is dependent on NLRC4 (BMDM). FIG. 3A. Immunofluorescence images of endogenous ASC specks and NLRC4 puncta in BMDMs after transfected with Alu (SEQ ID NO: 86) or B2 (SEQ ID NO: 88) RNA or transfection reagents only (Mock). […] Moreover, NLRC4 proteins assembled as puncta, and co-resided with ASC specks. FIG. 3B. ASC oligomerizations were evaluated in wild-type and Nlrc4^{-/-} BMDMs through cross-linking and western blot. […] The bands of oligomeric ASC protein were indicated by black arrow.
# The activated NLRC4 inflammasome undergoes oligomerization by assembling into high-molecular mass multiprotein complexes. We first investigated in situ assembling of NLRC4 and apoptosis speck (ASC) like protein complexes in response to SINE RNA treatment of BMDMs. Immunofluorescence studies show increased NLRC4 and ASC specks in SINE RNA-treated BMDMs compared to mock-treated cells (FIG. 3A). To assess NLRC4 inflammasome assembly, WT and NLRC4 KO BMDM cells were treated with Alu RNA (SEQ ID NO: 86). Disuccinimidyl suberate (DSS) cross-linked lysates were resolved using denaturing SDS-PAGE to detect ASC oligomers and cell lysates were resolved using native polyacrylamide gel electrophoresis (NATIVE-PAGE) to detect NLRC4 oligomerization. […] NLRC4/ASC oligomerization is essential for the cleavage of pro-caspase-1 into its active form p20 and IL-1β release.
molecule,measurement,setting,value
"Cc1cn([C@H]2C=C[C@@H](CO)O2)c(=O)[nH]c1=O [D4T, 1-[(2R,5S)-5-(hydroxymethyl)-2,5-dihydrofuran-2-yl]-5-methyl-1,2,3,4-tetrahydropyrimidine-2,4-dion]",flagellin induced caspase-1 activation,NLRC4 inflammasome,blocked; also recorded: reduced
same,binding of biotin-labeled NRTI to NLRC4 and NLRP3,NLRP3/NLRC4 complex,interacted with NLRP3 and NLRC4; also recorded: could directly bind to NLRC4 and NLRP3 protein
same,Alu RNA induced RPE degeneration in mice,RPE degeneration [1],prevented
"siRNA for Ddx17: siRNA for Ddx17: GGCUAGAUGUGGAAGAUGU; SEQ ID NO: 95, injected in mice (chemistry not fully specified)","Alu RNA induced ASC oligomerization, THP1 cells",ASC oligomerization [2],blocked
same,"Alu RNA induced IL-1β release, THP1 cells, ELISA",IL-1β,blocked
same,"Alu RNA induced RPE degeneration in vivo, effect of siRNA",RPE degeneration [3],blocked
"NLRC4 siRNA: SMARTPOOL siRNA for NLRC4: CAACUGGGCUCCUCUGUAA; SEQ ID NO: 93 (listed as RNA, chemistry not given here)","Alu RNA induced ASC oligomerization, human RPE cells",ASC oligomerization [4],blocked
same,"Alu RNA induced ASC oligomerization, human RPE cells",ASC oligomerization [4]; listed as SMARTPOOL siRNA for NLRC4,reduced
same,"Alu RNA induced RPE degeneration in vivo, effect of siRNA",RPE degeneration [3],blocked
"siDICER: siRNA for Dicer 1: GCAGUUGUCCUAAACAGAU; SEQ ID NO: 92 (listed as RNA, chemistry not given here)",phosphorylation of NLRC4 after Dicer1 knockdown,p-NLRC4 and caspase-1; WT BMDMs (FIG. 20A),induced the phosphorylation of NLRC4
same,caspase-1 activation after Dicer1 knockdown,p-NLRC4 and caspase-1; WT BMDMs (FIG. 20B),induced the activation of caspase-1
"Cc1cn([C@H]2C[C@H](N=[N+]=[N-])[C@@H](CO)O2)c(=O)[nH]c1=O [AZT, 3′-deoxy-3′-azidothymidine 1-[(2R,4S,5S)-4-Azido-5-(hydroxymethyl)oxolan-2-yl]-5-methylpyrimidine-2,4-dione]",binding of biotin-labeled NRTI to NLRC4 and NLRP3,NLRP3/NLRC4 complex,interacted with NLRP3 and NLRC4; also recorded: could directly bind to NLRC4 and NLRP3 protein
same,Alu RNA induced RPE degeneration in mice,RPE degeneration [1],prevented
"mouse apoptosis-associated speck-like protein containing a CARD (ASC) (other, UniProt Q9EPB4 1-193, looked up, Endogenous protein of mouse BMDM) MGRARDAILDALENLSGDELKKFKMKLLTVQLREGYGRIPRGALLQMDAIDLTDKLVSYYLESYGLELTMTVLRDMGLQELAEQLQTTKEESGAVAAAASVPAQSTARTGHFVDQHRQALIARVTEVDGVLDALHGSVLTEGQYQAVRAETTSQDKMRKLFSFVPSWNLTCKDSLLQALKEIHPYLVMDLEQS",binding result,[5],binds

# — patent US20220280543A1, “DDX17 AND NLRC4 TARGETING FOR INFLAMMATORY DISEASES” (University of Virginia Patent Foundation, priority 2019, published 2022)
